Assay results: patent US10968222B2, “2-azabicyclo hexane JAK inhibitor compound” (THERAVANCE BIOPHARMA R&D IP, LLC, priority 2018, dated 2021)

Assays:
PAK4 = molecular target: T1, PAK4 (Homo sapiens, UniProt O96013); test: Kinome screen, PAK4; assay type: binding; settings: screened at 1 μM
T1 construct: made in house; host or cells: E. coli BL21-derived host (T7 phage) or HEK-293 cells
Experimental: (§1) Compounds 1 and C-1 were screened against other kinases to evaluate their selectivity profile.
(§2) Kinase-tagged T7 phage strains were grown in parallel in 24-well blocks in an E. coli host derived from the BL21 strain. E. coli were grown to log-phase and infected with T7 phage from a frozen stock (multiplicity of infection=0.4) and incubated with shaking at 32° C. until lysis (90-150 minutes). The lysates were centrifuged (6,000×g) and filtered (0.2 μm) to remove cell debris. The remaining kinases were produced in HEK-293 cells and subsequently tagged with DNA for qPCR detection.
(§3) Streptavidin-coated magnetic beads were treated with biotinylated small molecule ligands for 30 minutes at room temperature to generate affinity resins for kinase assays. The liganded beads were blocked with excess biotin and washed with blocking buffer (SeaBlock (Pierce), 1% BSA, 0.05% Tween 20, 1 mM DTT) to remove unbound ligand and to reduce non-specific phage binding. Binding reactions were assembled by combining kinases, liganded affinity beads, and test compounds in 1× binding buffer (20% SeaBlock, 0.17×PBS, 0.05% Tween 20, 6 mM DTT). Test compounds were prepared as 40× stocks in 100% DMSO and directly diluted into the assay. All reactions were performed in polypropylene 384-well plates in a final volume of 0.04 ml. […] The kinase concentration in the eluates was measured by qPCR. […]

KIT = molecular target: T2, KIT (Homo sapiens, UniProt P10721); test: Kinome screen, KIT; assay type: binding; settings: screened at 1 μM
T2 construct: made in house; host or cells: E. coli BL21-derived host (T7 phage) or HEK-293 cells
Experimental: as §1, §2, §3

AURKA = molecular target: T3, AURKA (Homo sapiens, UniProt O14965); test: Kinome screen, AURKA; assay type: binding; settings: screened at 1 μM
T3 construct: made in house; host or cells: E. coli BL21-derived host (T7 phage) or HEK-293 cells
Experimental: as §1, §2, §3

SYK = molecular target: T4, SYK (Homo sapiens, UniProt P43405); test: Kinome screen, SYK; assay type: binding; settings: screened at 1 μM
T4 construct: made in house; host or cells: E. coli BL21-derived host (T7 phage) or HEK-293 cells
Experimental: as §1, §2, §3

SRC = molecular target: T5, SRC (Homo sapiens, UniProt P12931); test: Kinome screen, SRC; assay type: binding; settings: screened at 1 μM
T5 construct: made in house; host or cells: E. coli BL21-derived host (T7 phage) or HEK-293 cells
Experimental: as §1, §2, §3

JAK1 = molecular target: T6, JAK1 (Homo sapiens, UniProt P23458); test: Biochemical JAK kinase assay (LanthaScreen), JAK1; settings: converted from pIC50 by Cheng-Prusoff; 25 μM ATP; read-out: JAK 1 pKi (converted)
T6 construct: GST; purchased Life Technologies
Experimental: A panel of four LanthaScreen JAK biochemical assays (JAK1, 2, 3 and Tyk2) were carried in a common kinase reaction buffer (50 mM HEPES, pH 7.5, 0.01% Brij-35, 10 mM MgCl2, and 1 mM EGTA). Recombinant GST-tagged JAK enzymes and a GFP-tagged STAT1 peptide substrate were obtained from Life Technologies.
Serially diluted compound was pre-incubated with each of the four JAK enzymes and the substrate in white 384-well microplates (Corning) at ambient temperature for 1 h. ATP was subsequently added to initiate the kinase reactions in 10 μL total volume, with 1% DMSO. […] The plates were allowed to incubate at ambient temperature for 1 h before being read on the EnVision reader (Perkin Elmer). Emission ratio signals (520 nm/495 nm) were recorded and utilized to calculate the percent inhibition values based on DMSO and background controls.
For dose-response analysis, percent inhibition data were plotted vs. compound concentrations, and IC50 values were determined from a 4-parameter robust fit model with the Prism software (GraphPad Software). Results were expressed as pIC50 (negative logarithm of IC50) and subsequently converted to pKi (negative logarithm of dissociation constant, Ki) using the Cheng-Prusoff equation.

[1] = test system: IL-2/anti-CD3 stimulated STAT5 phosphorylation in CD4+ T cells in human PBMCs; test: Inhibition of IL-2 stimulated pSTAT5 in CD4+ T cells; assay type: cell-based; settings: 0.5 h, 30 min stimulation, flow cytometry, read-out: pIC50, inhibition of IL-2 stimulated pSTAT5 in CD4+ T cells (converted)
Experimental: The potency of the test compound for inhibition of interleukin-2 (IL-2)/anti-CD3 stimulated STAT5 phosphorylation was measured in CD4-positive (CD4+) T cells in human peripheral blood mononuclear cells (PBMCs) isolated from human whole blood (Stanford Blood Center) using flow cytometry. Because IL-2 signals through JAK, this assay provides a measure of JAK cellular potency.
CD4+ T cells were identified using a […] (PE) conjugated anti-CD4 antibody (Clone RPA-T4, BD Biosciences), while an Alexa Fluor 647 conjugated anti-pSTAT5 antibody (pY694, Clone 47, BD Biosciences) was used to detect STAT5 phosphorylation. […]
(2) After cytokine stimulation, cells were fixed with pre warmed fix solution (200 μL; BD Biosciences) for 10 min at 37° C., 5% CO2, washed twice with DPBS buffer (1 mL, Life Technologies), and resuspended in ice cold Perm Buffer III (1000 μL, BD Biosciences) for 30 min at 4° C. […] After incubation, cells were washed twice in FACS buffer before being analyzed using a LSRII flow cytometer (BD Biosciences). To determine the inhibitory potency of the test compound in response to IL-2/anti-CD3, the median fluorescent intensity (MFI) of pSTAT5 was measured in CD4+ T cells. IC50 values were determined from analysis of the inhibition curves of MFI vs compound concentration.
Data are expressed as pIC50 (negative decadic logarithm IC50) values.

GSK3B = molecular target: T7, GSK3B (Homo sapiens, UniProt P49841); test: Kinome screen, GSK3B; assay type: binding; settings: screened at 1 μM
T7 construct: made in house; host or cells: E. coli BL21-derived host (T7 phage) or HEK-293 cells
Experimental: as §1, §2, §3

CSNK1D = molecular target: T8, CSNK1D (Homo sapiens, UniProt P48730); test: Kinome screen, CSNK1D; assay type: binding; settings: screened at 1 μM
T8 construct: made in house; host or cells: E. coli BL21-derived host (T7 phage) or HEK-293 cells
Experimental: as §1, §2, §3

CDK9 = molecular target: T9, CDK9 (Homo sapiens, UniProt P50750); test: Kinome screen, CDK9; assay type: binding; settings: screened at 1 μM
T9 construct: made in house; host or cells: E. coli BL21-derived host (T7 phage) or HEK-293 cells
Experimental: as §1, §2, §3

CDK2 = molecular target: T10, CDK2 (Homo sapiens, UniProt P24941); test: Kinome screen, CDK2; assay type: binding; settings: screened at 1 μM
T10 construct: made in house; host or cells: E. coli BL21-derived host (T7 phage) or HEK-293 cells
Experimental: as §1, §2, §3

T2 sequence (P10721 26-976): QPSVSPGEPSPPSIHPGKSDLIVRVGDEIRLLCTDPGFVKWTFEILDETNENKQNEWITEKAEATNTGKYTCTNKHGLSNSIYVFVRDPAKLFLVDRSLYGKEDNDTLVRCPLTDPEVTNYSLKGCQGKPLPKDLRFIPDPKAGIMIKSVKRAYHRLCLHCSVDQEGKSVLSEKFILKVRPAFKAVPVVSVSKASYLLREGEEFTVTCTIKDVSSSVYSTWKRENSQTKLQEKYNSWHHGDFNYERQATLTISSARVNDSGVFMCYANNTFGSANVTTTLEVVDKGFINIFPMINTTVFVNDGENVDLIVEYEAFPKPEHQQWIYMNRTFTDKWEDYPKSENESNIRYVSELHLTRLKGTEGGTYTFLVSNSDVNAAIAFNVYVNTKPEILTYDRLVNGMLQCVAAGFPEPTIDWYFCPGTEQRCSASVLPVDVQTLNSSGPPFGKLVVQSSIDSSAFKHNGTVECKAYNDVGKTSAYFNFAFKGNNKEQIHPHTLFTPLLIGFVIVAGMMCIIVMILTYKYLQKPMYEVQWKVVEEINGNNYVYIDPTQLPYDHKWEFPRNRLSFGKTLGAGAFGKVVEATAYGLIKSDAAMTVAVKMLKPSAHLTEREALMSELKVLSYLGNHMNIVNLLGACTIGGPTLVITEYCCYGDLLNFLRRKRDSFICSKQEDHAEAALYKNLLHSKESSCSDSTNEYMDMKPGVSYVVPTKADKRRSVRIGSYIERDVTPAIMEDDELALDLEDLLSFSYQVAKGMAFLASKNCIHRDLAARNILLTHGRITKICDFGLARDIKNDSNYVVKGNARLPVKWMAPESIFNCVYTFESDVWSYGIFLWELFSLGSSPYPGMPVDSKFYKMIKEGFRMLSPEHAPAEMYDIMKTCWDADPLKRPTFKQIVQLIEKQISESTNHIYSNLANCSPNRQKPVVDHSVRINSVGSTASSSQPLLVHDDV
T1 sequence (O96013 whole entry): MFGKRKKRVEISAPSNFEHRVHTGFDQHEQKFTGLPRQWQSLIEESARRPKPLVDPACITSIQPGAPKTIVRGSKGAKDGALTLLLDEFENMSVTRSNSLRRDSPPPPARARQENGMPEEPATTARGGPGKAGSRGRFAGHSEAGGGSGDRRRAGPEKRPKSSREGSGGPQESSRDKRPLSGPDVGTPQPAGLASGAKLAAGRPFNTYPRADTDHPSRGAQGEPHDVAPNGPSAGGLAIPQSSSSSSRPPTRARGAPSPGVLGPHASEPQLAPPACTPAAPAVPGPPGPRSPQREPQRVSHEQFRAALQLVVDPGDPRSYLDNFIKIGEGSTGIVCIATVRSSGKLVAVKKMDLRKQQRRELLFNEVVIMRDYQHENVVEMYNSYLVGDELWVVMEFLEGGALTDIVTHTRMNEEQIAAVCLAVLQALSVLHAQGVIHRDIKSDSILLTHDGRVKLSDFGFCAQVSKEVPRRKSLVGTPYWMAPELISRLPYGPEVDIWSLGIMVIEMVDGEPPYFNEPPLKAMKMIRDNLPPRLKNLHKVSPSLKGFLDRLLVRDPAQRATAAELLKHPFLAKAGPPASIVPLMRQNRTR
T6 sequence (P23458 whole entry): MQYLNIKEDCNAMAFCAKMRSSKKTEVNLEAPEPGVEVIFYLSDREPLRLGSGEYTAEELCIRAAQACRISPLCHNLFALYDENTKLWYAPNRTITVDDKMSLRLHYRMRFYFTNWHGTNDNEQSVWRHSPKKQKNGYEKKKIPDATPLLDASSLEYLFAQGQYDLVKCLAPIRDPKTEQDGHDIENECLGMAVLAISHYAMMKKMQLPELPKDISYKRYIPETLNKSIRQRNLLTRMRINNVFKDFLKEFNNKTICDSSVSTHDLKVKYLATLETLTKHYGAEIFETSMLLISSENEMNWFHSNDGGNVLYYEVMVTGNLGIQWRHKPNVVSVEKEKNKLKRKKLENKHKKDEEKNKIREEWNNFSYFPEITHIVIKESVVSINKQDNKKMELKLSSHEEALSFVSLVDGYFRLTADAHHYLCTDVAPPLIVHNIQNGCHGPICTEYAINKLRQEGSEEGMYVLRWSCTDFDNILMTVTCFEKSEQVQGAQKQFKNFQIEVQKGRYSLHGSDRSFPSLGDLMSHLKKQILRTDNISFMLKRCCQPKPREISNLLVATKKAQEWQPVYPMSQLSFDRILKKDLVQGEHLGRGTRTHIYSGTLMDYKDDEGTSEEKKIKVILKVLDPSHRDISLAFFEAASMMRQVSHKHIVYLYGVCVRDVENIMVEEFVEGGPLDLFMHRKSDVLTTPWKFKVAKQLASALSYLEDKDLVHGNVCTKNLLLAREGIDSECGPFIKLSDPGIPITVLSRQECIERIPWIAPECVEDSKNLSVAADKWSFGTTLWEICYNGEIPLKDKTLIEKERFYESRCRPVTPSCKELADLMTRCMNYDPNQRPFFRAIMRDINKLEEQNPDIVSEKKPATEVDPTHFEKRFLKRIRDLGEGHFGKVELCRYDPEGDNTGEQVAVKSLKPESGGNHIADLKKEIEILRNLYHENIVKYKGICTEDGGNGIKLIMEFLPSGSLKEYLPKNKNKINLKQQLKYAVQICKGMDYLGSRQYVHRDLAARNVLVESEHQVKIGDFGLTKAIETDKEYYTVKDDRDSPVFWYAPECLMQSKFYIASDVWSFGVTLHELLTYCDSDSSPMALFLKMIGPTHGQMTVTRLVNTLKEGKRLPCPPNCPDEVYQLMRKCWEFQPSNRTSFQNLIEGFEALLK
T7 sequence (P49841 whole entry): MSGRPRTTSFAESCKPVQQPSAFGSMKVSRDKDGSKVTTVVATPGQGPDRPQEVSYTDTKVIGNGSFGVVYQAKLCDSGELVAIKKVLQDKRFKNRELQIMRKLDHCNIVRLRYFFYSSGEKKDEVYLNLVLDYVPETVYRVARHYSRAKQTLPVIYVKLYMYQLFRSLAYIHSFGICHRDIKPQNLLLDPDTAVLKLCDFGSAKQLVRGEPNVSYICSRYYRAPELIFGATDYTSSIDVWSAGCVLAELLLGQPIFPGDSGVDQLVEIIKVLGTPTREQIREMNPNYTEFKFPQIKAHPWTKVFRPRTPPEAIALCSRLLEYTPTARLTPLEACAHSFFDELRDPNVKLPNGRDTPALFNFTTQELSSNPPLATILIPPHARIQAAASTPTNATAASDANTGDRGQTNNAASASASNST
T8 sequence (P48730 whole entry): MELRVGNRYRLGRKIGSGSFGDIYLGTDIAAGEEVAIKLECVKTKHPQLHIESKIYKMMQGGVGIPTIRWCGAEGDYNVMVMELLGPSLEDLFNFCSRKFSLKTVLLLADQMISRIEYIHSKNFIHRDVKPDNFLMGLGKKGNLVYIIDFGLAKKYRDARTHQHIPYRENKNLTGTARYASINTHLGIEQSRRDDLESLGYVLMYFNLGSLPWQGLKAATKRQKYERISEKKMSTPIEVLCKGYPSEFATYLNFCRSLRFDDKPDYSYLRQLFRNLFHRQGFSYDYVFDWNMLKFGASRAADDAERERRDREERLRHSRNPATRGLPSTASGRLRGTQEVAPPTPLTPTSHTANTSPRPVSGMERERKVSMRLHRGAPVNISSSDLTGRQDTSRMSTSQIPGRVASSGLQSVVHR
T5 sequence (P12931 whole entry): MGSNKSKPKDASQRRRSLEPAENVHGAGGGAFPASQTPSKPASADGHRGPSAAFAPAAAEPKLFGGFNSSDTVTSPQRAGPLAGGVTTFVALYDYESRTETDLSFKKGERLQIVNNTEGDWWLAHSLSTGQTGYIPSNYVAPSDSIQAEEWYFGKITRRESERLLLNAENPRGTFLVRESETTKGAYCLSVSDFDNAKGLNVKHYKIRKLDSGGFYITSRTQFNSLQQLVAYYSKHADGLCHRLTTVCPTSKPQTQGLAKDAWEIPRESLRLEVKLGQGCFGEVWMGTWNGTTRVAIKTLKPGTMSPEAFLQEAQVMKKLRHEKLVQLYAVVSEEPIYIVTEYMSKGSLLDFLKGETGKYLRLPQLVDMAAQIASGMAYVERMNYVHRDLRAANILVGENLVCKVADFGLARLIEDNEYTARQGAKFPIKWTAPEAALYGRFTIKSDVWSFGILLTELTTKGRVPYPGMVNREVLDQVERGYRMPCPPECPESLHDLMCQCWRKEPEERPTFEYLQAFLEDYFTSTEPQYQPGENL
T9 sequence (P50750 whole entry): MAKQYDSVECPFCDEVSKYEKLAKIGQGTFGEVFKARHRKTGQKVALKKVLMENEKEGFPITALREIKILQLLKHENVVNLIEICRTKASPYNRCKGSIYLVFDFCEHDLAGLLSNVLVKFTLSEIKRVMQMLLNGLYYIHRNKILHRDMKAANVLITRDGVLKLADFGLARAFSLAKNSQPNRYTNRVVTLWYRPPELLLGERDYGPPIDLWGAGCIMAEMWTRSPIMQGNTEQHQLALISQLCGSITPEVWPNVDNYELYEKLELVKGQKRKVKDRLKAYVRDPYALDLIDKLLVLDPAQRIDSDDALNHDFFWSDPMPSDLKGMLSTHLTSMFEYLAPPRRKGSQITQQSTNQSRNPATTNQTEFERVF
T3 sequence (O14965 whole entry): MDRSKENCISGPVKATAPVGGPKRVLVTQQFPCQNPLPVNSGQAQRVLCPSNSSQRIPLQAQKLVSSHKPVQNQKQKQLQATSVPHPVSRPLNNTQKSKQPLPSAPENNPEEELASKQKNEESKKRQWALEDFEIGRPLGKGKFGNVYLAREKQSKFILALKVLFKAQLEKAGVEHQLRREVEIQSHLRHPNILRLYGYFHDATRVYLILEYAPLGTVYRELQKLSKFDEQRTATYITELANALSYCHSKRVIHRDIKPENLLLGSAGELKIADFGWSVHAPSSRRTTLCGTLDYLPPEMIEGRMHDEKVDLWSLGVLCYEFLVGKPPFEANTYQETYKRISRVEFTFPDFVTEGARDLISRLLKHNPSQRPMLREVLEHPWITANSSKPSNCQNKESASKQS

SMILES: CCc1cc(O)c(F)cc1-c1cc(F)c2c(-c3nc4c([nH]3)CCN(C(=O)[C@]35C[C@H]3CCN5)C4)n[nH]c2c1 [Compound 1, (1S,5R)-2-azabicyclo[3.1.0]hexan-1-yl(2-(6-(2-ethyl-5-fluoro-4-hydroxyphenyl)-4-fluoro-1H-indazol-3-yl)-6,7-dihydro-3H-imidazo[4,5-c]pyridin-5(4H)-yl)methanone]
- inhibition at 1 µM (PAK4): 41%
- inhibition at 1 µM (KIT): 83%
- inhibition at 1 µM (AURKA): 26%
- inhibition at 1 µM (SYK): 44%
- inhibition at 1 µM (SRC): 65%
- Ki (JAK1): 0.126 nM
- IC50 [1]: 20 nM
- inhibition at 1 µM (GSK3B): 32%
- inhibition at 1 µM (CSNK1D): 25%
- inhibition at 1 µM (CDK9): 13%
- inhibition at 1 µM (CDK2): 1%
